pEC50, pIC50: −log10 of the molar value. Non-standard residues stand in square brackets, D forms with d. Residues, ends and D or L forms follow the SMILES beside them. αMeP = C[C@@]1(C(=O)O)CCCN1

Data set [1] has as its target ATP-dependent Clp protease proteolytic subunit, mitochondrial (Homo sapiens, UniProt Q16740). Description: Activation of human ClpP extracted from Escherichia coli using Ac-WLA-AMC as substrate assessed as fluorescence signal measured after 10 mins incubation.
In the next data set the test system is OCI-Ly10. Put plainly: Antiproliferative activity against human OCI-Ly10 cells assessed as cell viability measured after 72 hrs incubation by CellTiter-based growth inhibition assay. The note with it: OCI-Ly10, 72 h.
Data set [2] in a line: in vivo. Conditions: rat, blood, iv, 10 mg/kg.
Description: Elimination half life in rat blood at 10 mg/kg, iv measured after 12 hrs
Data set [3] deals with T1, 3-hydroxy-3-methylglutaryl-coenzyme A reductase (Rattus norvegicus, UniProt P51639).
T1 sequence (P51639 whole entry): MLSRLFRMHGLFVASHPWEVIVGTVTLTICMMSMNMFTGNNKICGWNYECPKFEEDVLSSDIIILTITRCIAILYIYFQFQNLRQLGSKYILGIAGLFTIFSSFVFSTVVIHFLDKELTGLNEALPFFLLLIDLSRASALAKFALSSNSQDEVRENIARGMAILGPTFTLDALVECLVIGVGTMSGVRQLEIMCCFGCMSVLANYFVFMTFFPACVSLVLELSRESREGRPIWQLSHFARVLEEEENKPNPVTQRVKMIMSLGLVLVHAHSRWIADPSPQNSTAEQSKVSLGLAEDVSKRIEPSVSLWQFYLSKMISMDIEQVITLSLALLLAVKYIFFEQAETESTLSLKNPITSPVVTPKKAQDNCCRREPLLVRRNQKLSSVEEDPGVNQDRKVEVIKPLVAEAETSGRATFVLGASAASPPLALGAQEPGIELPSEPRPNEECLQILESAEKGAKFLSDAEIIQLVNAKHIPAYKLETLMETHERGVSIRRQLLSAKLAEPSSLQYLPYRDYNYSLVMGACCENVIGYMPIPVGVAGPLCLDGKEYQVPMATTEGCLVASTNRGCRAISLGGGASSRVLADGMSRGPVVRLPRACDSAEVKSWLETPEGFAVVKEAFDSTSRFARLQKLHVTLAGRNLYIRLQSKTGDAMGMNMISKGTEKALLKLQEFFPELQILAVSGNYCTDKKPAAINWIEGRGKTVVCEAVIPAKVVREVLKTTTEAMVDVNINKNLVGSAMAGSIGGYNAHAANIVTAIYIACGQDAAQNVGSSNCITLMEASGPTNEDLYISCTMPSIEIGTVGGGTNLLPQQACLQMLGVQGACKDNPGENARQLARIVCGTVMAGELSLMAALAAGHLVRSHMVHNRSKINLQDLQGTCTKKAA
Description: Inhibition of HMG-CoA reductase activity in rat liver microsomes

Another data set addresses Bcr/Abl fusion protein (Homo sapiens, UniProt P00519). Description: Inhibition of Bcr-Abl (unknown origin).
Data set [4] has as its target Voltage-gated inwardly rectifying potassium channel KCNH2 (Homo sapiens, UniProt Q12809).
Data set [5] can be described thus: MRT in ICR mouse at 15 mg/kg, po measured upto 24 hrs by LC-MS/MS analysis. The note with it: in vivo.
The nature of data set [6]: in vivo. Conditions: ICR, mouse, po, 15 mg/kg.
Description: Oral bioavailability in ICR mouse at 15 mg/kg measured upto 24 hrs by LC-MS/MS analysis
Data set [7] in a line: MRT in ICR mouse at 5 mg/kg, iv measured upto 24 hrs by LC-MS/MS analysis. The note with it: in vivo.
A short description of data set [8]: Half life in ICR mouse at 5 mg/kg, iv measured upto 24 hrs by LC-MS/MS analysis. The note with it: in vivo.
Data set [9] can be described thus: in vivo. The note with it: ICR, mouse, po, 15 mg/kg. The source holds these as a separate data set.
Description: Cmax in ICR mouse at 15 mg/kg, po measured upto 24 hrs by LC-MS/MS analysis
A short description of data set [10]: Metabolic stability in human liver microsomes assessed as half life.
Data set [11] is described as follows: in vivo. Conditions: ICR, mouse, iv, 5 mg/kg.
The nature of data set [12]: Half life in ICR mouse at 15 mg/kg, po measured upto 24 hrs by LC-MS/MS analysis. Conditions: in vivo.
A short description of data set [13]: in vivo. The note with it: ICR, mouse, po, 15 mg/kg. The source holds these as a separate data set.
Description: Tmax in ICR mouse at 15 mg/kg, po measured upto 24 hrs by LC-MS/MS analysis
A short description of data set [14]: in vivo. Conditions: ICR, mouse, po, 15 mg/kg. The source holds these as a separate data set.
Description: AUC (0 to t) in ICR mouse at 15 mg/kg, po measured upto 24 hrs by LC-MS/MS analysis
Data set [15] is described as follows: Clearance in ICR mouse at 5 mg/kg, iv measured upto 24 hrs by LC-MS/MS analysis. Conditions: in vivo.
A short description of data set [16]: Metabolic stability in human liver microsomes assessed as intrinsic clearance. Background: Liver microsomes are vesicles of endoplasmic reticulum, rich in cytochrome P450 enzymes.

Chain of ATP-dependent Clp protease proteolytic subunit, mitochondrial (Q16740 whole entry): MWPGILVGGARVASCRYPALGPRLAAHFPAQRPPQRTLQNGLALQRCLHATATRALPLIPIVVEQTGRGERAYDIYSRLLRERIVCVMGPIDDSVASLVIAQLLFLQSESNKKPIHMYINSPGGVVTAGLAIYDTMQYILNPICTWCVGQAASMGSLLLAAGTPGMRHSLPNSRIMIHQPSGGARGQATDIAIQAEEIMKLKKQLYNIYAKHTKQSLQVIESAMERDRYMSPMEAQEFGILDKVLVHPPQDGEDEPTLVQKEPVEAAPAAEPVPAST
Chain of Voltage-gated inwardly rectifying potassium channel KCNH2 (Q12809 whole entry): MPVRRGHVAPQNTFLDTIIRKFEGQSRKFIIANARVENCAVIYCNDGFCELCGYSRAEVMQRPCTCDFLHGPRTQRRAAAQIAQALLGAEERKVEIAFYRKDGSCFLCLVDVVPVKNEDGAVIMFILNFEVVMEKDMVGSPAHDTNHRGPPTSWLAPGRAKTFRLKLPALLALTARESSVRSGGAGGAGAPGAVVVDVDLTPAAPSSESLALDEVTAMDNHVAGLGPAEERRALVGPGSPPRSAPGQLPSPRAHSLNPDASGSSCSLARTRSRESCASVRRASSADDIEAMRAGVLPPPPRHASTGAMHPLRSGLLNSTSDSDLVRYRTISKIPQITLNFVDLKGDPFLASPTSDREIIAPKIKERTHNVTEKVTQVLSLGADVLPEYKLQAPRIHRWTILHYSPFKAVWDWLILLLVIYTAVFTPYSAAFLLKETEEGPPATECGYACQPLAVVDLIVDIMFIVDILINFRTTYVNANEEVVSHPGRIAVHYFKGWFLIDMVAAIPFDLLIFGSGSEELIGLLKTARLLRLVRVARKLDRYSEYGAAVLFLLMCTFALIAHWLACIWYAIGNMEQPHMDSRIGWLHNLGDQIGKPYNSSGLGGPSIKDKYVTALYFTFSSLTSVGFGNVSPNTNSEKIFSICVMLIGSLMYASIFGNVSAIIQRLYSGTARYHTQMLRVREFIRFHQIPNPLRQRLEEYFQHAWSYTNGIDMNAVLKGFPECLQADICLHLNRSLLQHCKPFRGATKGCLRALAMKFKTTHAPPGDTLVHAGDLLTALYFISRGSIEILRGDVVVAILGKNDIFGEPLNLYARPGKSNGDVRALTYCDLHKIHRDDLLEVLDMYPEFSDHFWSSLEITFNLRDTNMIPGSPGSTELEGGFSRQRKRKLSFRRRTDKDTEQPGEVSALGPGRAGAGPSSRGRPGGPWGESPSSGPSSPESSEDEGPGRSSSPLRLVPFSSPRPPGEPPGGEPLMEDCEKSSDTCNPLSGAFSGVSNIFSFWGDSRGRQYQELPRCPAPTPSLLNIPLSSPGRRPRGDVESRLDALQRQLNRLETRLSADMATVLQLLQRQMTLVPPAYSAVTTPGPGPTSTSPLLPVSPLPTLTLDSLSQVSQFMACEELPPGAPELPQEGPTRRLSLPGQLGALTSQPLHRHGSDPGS
Chain of Bcr/Abl fusion protein (P00519 whole entry, the tested form may be a part): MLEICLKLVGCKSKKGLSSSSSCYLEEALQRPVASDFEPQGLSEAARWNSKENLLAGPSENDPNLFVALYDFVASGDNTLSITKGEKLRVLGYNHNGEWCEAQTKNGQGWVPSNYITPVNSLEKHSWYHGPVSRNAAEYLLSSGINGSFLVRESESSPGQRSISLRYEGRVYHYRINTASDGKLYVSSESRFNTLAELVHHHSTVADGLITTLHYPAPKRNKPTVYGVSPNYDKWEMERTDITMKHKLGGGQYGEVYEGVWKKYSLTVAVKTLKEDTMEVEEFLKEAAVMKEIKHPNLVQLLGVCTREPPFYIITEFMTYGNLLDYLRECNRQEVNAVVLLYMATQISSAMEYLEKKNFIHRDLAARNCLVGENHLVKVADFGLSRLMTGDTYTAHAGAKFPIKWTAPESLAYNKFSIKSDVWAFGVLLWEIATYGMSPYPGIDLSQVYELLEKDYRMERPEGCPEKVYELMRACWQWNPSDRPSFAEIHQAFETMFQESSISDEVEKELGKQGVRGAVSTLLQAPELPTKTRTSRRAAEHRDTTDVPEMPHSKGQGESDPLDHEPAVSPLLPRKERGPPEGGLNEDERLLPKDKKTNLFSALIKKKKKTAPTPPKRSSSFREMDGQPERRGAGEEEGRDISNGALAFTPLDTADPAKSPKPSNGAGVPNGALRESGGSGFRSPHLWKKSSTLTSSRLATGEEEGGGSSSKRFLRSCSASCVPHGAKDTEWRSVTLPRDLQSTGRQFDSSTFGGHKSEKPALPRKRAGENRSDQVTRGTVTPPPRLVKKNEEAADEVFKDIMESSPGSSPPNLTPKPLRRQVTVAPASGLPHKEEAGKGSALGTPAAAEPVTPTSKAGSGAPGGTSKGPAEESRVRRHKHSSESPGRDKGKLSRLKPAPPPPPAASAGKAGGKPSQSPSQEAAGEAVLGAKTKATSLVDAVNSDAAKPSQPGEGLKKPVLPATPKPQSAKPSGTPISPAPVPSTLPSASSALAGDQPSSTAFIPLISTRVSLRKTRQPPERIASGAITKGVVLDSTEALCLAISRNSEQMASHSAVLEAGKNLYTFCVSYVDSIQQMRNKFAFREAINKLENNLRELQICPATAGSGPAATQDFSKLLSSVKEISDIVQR
Chain of Bcr/Abl fusion protein (P11274 whole entry, further chain, the tested form may be a part): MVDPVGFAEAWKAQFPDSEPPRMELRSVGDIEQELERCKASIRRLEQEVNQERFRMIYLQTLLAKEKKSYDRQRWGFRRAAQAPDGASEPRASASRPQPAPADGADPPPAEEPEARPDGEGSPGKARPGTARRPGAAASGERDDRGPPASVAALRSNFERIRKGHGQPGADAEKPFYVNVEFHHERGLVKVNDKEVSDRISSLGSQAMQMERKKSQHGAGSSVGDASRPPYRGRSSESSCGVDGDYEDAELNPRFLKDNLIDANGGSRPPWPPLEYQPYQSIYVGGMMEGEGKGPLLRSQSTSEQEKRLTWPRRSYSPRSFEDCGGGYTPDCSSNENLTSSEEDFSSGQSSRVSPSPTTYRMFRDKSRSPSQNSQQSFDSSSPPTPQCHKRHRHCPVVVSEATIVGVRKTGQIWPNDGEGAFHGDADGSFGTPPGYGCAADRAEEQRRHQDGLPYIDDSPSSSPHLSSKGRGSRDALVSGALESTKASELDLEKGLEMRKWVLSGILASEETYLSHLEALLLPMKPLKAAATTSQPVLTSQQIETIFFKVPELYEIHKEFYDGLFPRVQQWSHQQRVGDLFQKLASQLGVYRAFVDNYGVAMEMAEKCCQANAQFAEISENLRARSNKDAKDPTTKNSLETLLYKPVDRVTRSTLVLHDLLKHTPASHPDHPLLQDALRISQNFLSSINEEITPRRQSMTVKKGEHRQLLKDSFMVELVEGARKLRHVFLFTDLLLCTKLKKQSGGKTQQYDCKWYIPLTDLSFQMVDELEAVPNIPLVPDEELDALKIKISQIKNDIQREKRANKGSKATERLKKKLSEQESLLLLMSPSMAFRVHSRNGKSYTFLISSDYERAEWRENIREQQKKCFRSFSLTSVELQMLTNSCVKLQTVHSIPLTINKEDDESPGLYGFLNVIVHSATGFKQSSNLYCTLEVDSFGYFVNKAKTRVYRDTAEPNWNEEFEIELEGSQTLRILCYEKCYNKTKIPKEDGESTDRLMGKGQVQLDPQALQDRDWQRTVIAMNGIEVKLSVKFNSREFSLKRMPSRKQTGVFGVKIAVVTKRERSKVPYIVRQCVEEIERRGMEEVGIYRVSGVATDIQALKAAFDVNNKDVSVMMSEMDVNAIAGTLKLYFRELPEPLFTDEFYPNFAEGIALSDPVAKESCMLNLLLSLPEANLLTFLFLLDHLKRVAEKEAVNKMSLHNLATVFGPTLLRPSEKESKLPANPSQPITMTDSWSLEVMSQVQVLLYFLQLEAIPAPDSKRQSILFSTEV

What is called pEC50 is the EC50 on a negative log10 scale, so that one unit is a factor of ten. Usually pIC50 stands for −log10 of the IC50, conventionally taken in molar units. As for `C[C@@H]1Cc2nc(NCc3ccc(C(F)(F)F)cc3)[nH]c(=O)c2CN1Cc1ccccc1F`, the pEC50 in data set [1] is 5.89. In addition, in the data set with OCI-Ly10, the pIC50 was 5.51.
In the case of `C[C@@H]1Cc2nc(NCc3ccc(C(F)(F)F)cc3)[nH]c(=O)c2CN1Cc1cccc(F)c1`, in data set [1], the pEC50 was 6.57. Also, the pIC50 in the data set on OCI-Ly10 is 6.81.
As usually defined, the half-life is how long it takes for the measured level to halve. On to `C[C@@]1(C(=O)N[C@@H](CCC(=O)O)C(=O)O)CCCN1C(=O)CN` [TROFINETIDE] (H-Gly-[αMeP]-Glu-OH), for which, in the data set “in vivo [2]”, the half-life at 12 h was found to be 1.23 h.
Turning to `C[C@@H]1Cc2nc(NCc3ccc(C(F)(F)F)cc3)[nH]c(=O)c2CN1Cc1cccc(Br)c1`, the pEC50 in data set [1] was 7.20. Also, the pIC50 in the data set on OCI-Ly10 was 7.30.
Consider `O=c1nc(NCc2ccc(C(F)(F)F)cc2)[nH]c2c1CN(Cc1ccccc1)CC2`, for which the pEC50 in data set [1] is 5.62.
With `CC[C@H](C)C(=O)O[C@H]1CCC=C2C=C[C@H](C)[C@H](CC[C@@H]3C[C@@H](O)CC(=O)O3)[C@H]21` [MEVASTATIN], in [3], the pIC50 was 8.25.
As to `COc1cccc(CN2Cc3c(nc(NCc4ccc(C(F)(F)F)cc4)[nH]c3=O)C[C@H]2C)c1`, the pEC50 in [1] was 6.00. For the same compound, the negative-log IC50 (pIC50) in the data set with OCI-Ly10 was 5.05.
As to `O=C(Nc1cccc(Nc2nccc(-c3cccnc3)n2)c1)c1ccccc1`, on Bcr/Abl fusion protein, the pIC50 was 6.70.
Regarding `Cc1ccc(CNc2nc3c(c(=O)[nH]2)CN(Cc2cccc(C#N)c2)[C@H](C)C3)cc1`, the pEC50 in data set [1] was 7.57. Further, in the data set on OCI-Ly10, the negative logarithm of the IC50 (pIC50) was 6.93.
Take `C[C@@H]1Cc2nc(NCc3ccc(C(F)(F)F)cc3)[nH]c(=O)c2CN1Cc1cccc(Cl)c1`: the pEC50 in [1] was 6.82. The pIC50 in the data set on OCI-Ly10 was 6.96.
The like results for `Cc1cc(Br)ccc1CNc1nc2c(c(=O)[nH]1)CN(Cc1cccc(C#N)c1)[C@H](C)C2` were, in that order, 7.03 and 7.06.
Turning to `C[C@@H]1Cc2nc(NCc3ccc(C(F)(F)F)cc3)[nH]c(=O)c2CN1Cc1ccccc1O`, the pEC50 in [1] is 6.07. In addition, the pIC50 in the data set with OCI-Ly10 was 5.89.
In the case of `C[C@@H]1Cc2nc(NCc3ccccc3Br)[nH]c(=O)c2CN1Cc1cccc(C#N)c1`, in data set [1], the pEC50 was 6.46. Also, in the data set on OCI-Ly10, the pIC50 was 6.92.
Turning to `O=c1nc2n(c3c1CN(Cc1ccccc1)CC3)CCN2Cc1ccc(F)c(Br)c1`, in data set [4], the pIC50 was 5.82.
Consider `C[C@@H]1Cc2nc(N3CCC(c4ccccc4)C3)[nH]c(=O)c2CN1Cc1cccc(C#N)c1` (some centres undefined), for which the pEC50 in data set [1] is 6.15. In addition, the pIC50 in the data set with OCI-Ly10 was 5.24.
For `C[C@@H]1Cc2nc(NCc3ccc(Br)c(F)c3)[nH]c(=O)c2CN1Cc1cccc(C#N)c1`, the pEC50 in data set [1] is 6.58. Besides, the pIC50 with OCI-Ly10 is 7.32.
`C[C@@H]1Cc2nc(NCc3ccc(Cl)cc3)[nH]c(=O)c2CN1Cc1cccc(C#N)c1`: the negative-log EC50 (pEC50) in data set [1] was 7.23. Besides, in the data set on OCI-Ly10, the pIC50 was 7.87.
With `C[C@@H]1Cc2nc(NCc3ccc(C(F)(F)F)cc3)[nH]c(=O)c2CN1Cc1cccnc1`, the negative logarithm of the EC50 (pEC50) in data set [1] was 5.47. In addition, the pIC50 with OCI-Ly10 is 5.11.
Take `C[C@@H]1Cc2nc(NCc3ccc(C(F)(F)F)cc3)[nH]c(=O)c2CN1Cc1cccc(OC(F)(F)F)c1`: the pEC50 in [1] was 6.57. Further, the pIC50 in the data set on OCI-Ly10 was 5.89.
With `C[C@@H]1Cc2nc(NCc3ccc(C(F)(F)F)cc3)[nH]c(=O)c2CN1Cc1ccc(C#N)cc1`, the pEC50 in [1] is 5.87. The pIC50 in the data set with OCI-Ly10 is 5.22.
For `C[C@@H]1Cc2nc(NCc3ccc(C(F)(F)F)cc3)[nH]c(=O)c2CN1Cc1ccc(F)cc1`, the pEC50 in data set [1] is 6.31. Further, the pIC50 in the data set on OCI-Ly10 is 5.97.
The like results for `C[C@@H]1Cc2nc(NCc3cccc(Br)c3)[nH]c(=O)c2CN1Cc1cccc(C#N)c1` were, in that order, 7.35 and 7.05.
Consider `Cc1cccc(CNc2nc3c(c(=O)[nH]2)CN(Cc2cccc(C#N)c2)[C@H](C)C3)c1`, for which, in [1], the pEC50 is 6.95. In addition, the negative logarithm of the IC50 (pIC50) in the data set on OCI-Ly10 was 6.83.
In the case of `Cc1ccccc1CNc1nc2c(c(=O)[nH]1)CN(Cc1cccc(C#N)c1)[C@H](C)C2`, in data set [1], the pEC50 was 7.36. The pIC50 in the data set with OCI-Ly10 is 7.35.
Take `C[C@@H]1Cc2nc(NCc3ccc(C(F)(F)F)cc3)[nH]c(=O)c2CN1Cc1cccc2ccccc12`: in [1], the pEC50 was 6.12. Moreover, in the data set with OCI-Ly10, the pIC50 is 5.09.
For `C[C@@H]1Cc2nc(NCc3ccc(Br)cc3)[nH]c(=O)c2CN1Cc1cccc(C#N)c1`, in data set [4], the pIC50 is 5.31.
With `C[C@@H]1Cc2nc(NCC3CC3)[nH]c(=O)c2CN1Cc1cccc(C#N)c1`, the pEC50 in data set [1] was 5.84. In the data set with OCI-Ly10, the pIC50 was 5.39.
Usually MRT stands for the average time that molecules of a dose stay in the body. The bioavailability is the share of a dose that reaches the circulation, judged against a reference dose that is usually intravenous. Low readings indicate little systemic uptake, high ones much systemic uptake. What is called Cmax is the peak of the concentration-time curve. For orientation: AUC(0-t) means the area under the concentration-time curve up to a stated or last time point. A high value points to high exposure. The Tmax is the time from dosing to the highest level. The clearance is a measure of how efficiently the substance is removed, as volume per time. Low readings indicate a low capacity for elimination, high ones a high capacity for elimination. One may read the CLint scaled as the capacity of the preparation to metabolise the compound, expressed as a volume cleared per time. For the compound `Cc1ccccc1CN1C(=O)C2=C(CCN(Cc3ccccc3)C2)N2CCN=C12.Cl.Cl.O`, the figures for the MRT at 24 h in [5] and in data set [7] were 1.46 h and 0.86 h, respectively. For the same compound, in the data set “in vivo [6]”, the bioavailability at 24 h worked out at 15.2%. The half-life at 24 h was 0.91 h in [8] and 1.05 h in [12]. The compound further yielded a Cmax at 24 h in “in vivo [9]” of 566 ng/mL. The half-life in [10] is 9.3 h. The AUC(0-t) at 24 h turned out to be 1960 ng·h/mL in the data set “in vivo [11]” and 894 ng·h/mL in the data set “in vivo [14]”. The Tmax at 24 h in the data set “in vivo [13]” stood at 0.42 h. This compound came in with a clearance at 24 h in data set [15] of 42.7 mL/min/kg. Moreover, in data set [16], the CLint scaled is 187 mL/min/kg.
Turning to `C[C@@H]1Cc2nc(NCc3ccc(C(F)(F)F)cc3)[nH]c(=O)c2CN1Cc1ccncc1`, the pEC50 in data set [1] was 5.40. Further, the pIC50 in the data set on OCI-Ly10 was 5.19.
Taken in the same sequence, the figures for `C[C@@H]1Cc2nc(NCc3ccc(C(F)(F)F)cc3)[nH]c(=O)c2CN1Cc1cccc(C#N)c1` were 7.25 and 7.38.
Turning to `C[C@@H]1Cc2nc(NCc3cccc4ccccc34)[nH]c(=O)c2CN1Cc1cccc(C#N)c1`, the negative logarithm of the EC50 (pEC50) in data set [1] was 7.17. Moreover, the negative-log IC50 (pIC50) in the data set on OCI-Ly10 was 6.98.
As for `C[C@@H]1Cc2nc(NCc3ccc(C(F)(F)F)cc3)[nH]c(=O)c2CN1Cc1ccccc1`, the pEC50 in data set [1] was 7.19.
As to `C[C@@H]1Cc2nc(NCc3ccc(C(F)(F)F)cc3)[nH]c(=O)c2CN1CC1CCCCC1`, the negative-log EC50 (pEC50) in data set [1] was 6.52. Moreover, the pIC50 in the data set on OCI-Ly10 was 6.10.

For the origin of these results see ChEMBL document CHEMBL6153125, “Harnessing the Magic Methyl Effect: Discovery of CLPP-2068 as a Novel HsClpP Activator for the Treatment of Diffuse Large B-Cell Lymphoma” (J Med Chem, 2025).
